{"source": "patent US4251520A", "about": "“Glucofuranose derivatives” (priority 1976, dated 1981)", "key": {"[1]": {"experiment": "in vivo", "details": "mouse, in vivo, po"}, "[2]": {"tested_on": "mouse", "experiment": "in vivo", "details": "oral route, even at a dose of 4,000 mg./kg."}, "[3]": {"tested_on": "edema induced by carrageenan", "experiment": "Anti-inflammatory activity, carrageenin-induced oedema", "type": "in vivo, rat", "details": "po; 500 mg/kg p.o. rat; read-out: % inhibition of edema induced by carrageenan", "excerpt": "Beginning, therefore, with D-glucose, we have prepared 1,2:5,6-di-O-isopropylidene-α-D-glucofuranose (II): [drawing 2] as well as 1,2-O-isopropylidene-α-D-glucofuranose and 1,2-O-isopropylidene-3,5,6-tri-O-benzyl-α-D-glucofuranose (1; Glen W. L., Myers G. S., Grant G. A., J. Chem. Soc., 2568/1951; (2) Meyer A. S., Reichstein T., Helv. Chim. Acta, 29, 139/1946; (3) Huber G., Rossi A., Helv. Chim. Acta, 51, 1185/1968) and have compared these compounds with (I) for anti-inflammatory activity against carrageenin-induced oedema (500 mg/kg, p.o. in rats)."}, "[4]": {"tested_on": "edema induced by dextran", "experiment": "Anti-inflammatory activity, dextran-induced edema", "type": "in vivo, rat", "details": "po; 500 mg/kg p.o. rat; read-out: % inhibition of edema induced by dextran"}, "[5]": {"tested_on": "edema induced by formalin", "experiment": "Anti-inflammatory activity, formalin-induced edema", "type": "in vivo, rat", "details": "po; 500 mg/kg p.o. rat; read-out: % inhibition of edema induced by formalin"}, "[6]": {"experiment": "Antipyretic activity", "type": "in vivo, rat"}, "[7]": {"experiment": "Analgesic activity, hot plate test", "type": "in vivo, mouse", "details": "po; 500 mg/kg p.o. mouse; hot plate test; read-out: Analgesic activity, increase of reaction time %"}, "[8]": {"experiment": "Analgesic activity, protection from writhing", "type": "in vivo, mouse", "details": "po; 500 mg/kg p.o. mouse; read-out: Analgesic activity, protection from writhing %"}, "[9]": {"tested_on": "spasm by histamine", "experiment": "Antispasmodic activity in vitro, spasm by histamine"}, "[10]": {"tested_on": "spasm by acetylcholine", "experiment": "Antispasmodic activity in vitro, spasm by acetylcholine"}, "[11]": {"experiment": "Analgesic action (overall)", "details": "mouse, in vivo"}, "[12]": {"details": "background; cited from earlier work"}, "[13]": {"tested_on": "capillary permeability", "experiment": "Capillary permeability test", "details": "500 mg/kg p.o. mouse"}, "[14]": {"tested_on": "granuloma", "experiment": "Granuloma cotton pellet test", "details": "Rattus norvegicus, po, read-out: % inhibition of granuloma"}}}
{"smiles": "CCOC1O[C@H]([C@@H](COCc2ccccc2)OCc2ccccc2)[C@H](OCc2ccccc2)[C@H]1O", "note": "(stereo partly drawn) [I, ethyl 3,5,6-tri-O-benzyl-D-glucofuranoside, reference compound]", "values": [{"measurement": "LD50", "setting": "[1]", "value": "> 4000", "unit": "mg/kg"}, {"measurement": "Oral toxicity / tolerance (in words)", "setting": "[2]", "value": "well tolerated"}, {"measurement": "inhibition in vivo at 500 mg/kg", "setting": "[3]", "value": 20, "unit": "%"}, {"measurement": "inhibition in vivo at 500 mg/kg", "setting": "[4]", "value": 0, "unit": "%"}, {"measurement": "inhibition in vivo at 500 mg/kg", "setting": "[5]", "value": 14, "unit": "%"}, {"measurement": "Antipyretic activity (potency in comparison with aspirin = 100)", "setting": "[6]; 400 mg/kg p.o. rat, aspirin = 100", "value": 9, "unit": "%"}, {"measurement": "Antipyretic action (in words)", "setting": "[6]; rat, in vivo", "value": "little or no activity"}, {"measurement": "change in vivo at 500 mg/kg", "setting": "[7]", "value": 10, "unit": "%"}, {"measurement": "inhibition in vivo at 500 mg/kg", "setting": "[8]", "value": 0, "unit": "%"}, {"measurement": "Antispasmodic activity in vitro, ED50, inhib. of spasm by histamine", "setting": "[9]", "value": 20, "unit": "µg/mL"}, {"measurement": "Antispasmodic activity in vitro, ED50, inhib. of spasm by acetylcholine", "setting": "[10]", "value": 30, "unit": "µg/mL"}, {"measurement": "Analgesic action (in words)", "setting": "[11]", "value": "moderate or nil"}, {"measurement": "Known pharmacological activity (in words)", "setting": "[12]", "value": "anti-inflammatory and anti-allergic activity"}, {"measurement": "Capillary permeability, decrease %", "setting": "[13]", "value": 48, "unit": "%"}, {"measurement": "inhibition in vivo at 200 mg/kg", "setting": "[14]", "value": 0, "unit": "%"}]}
